Source: patent publication EP1116727B1, “PEPTIDE DERIVATIVE” (Takeda Chemical Industries, Ltd., priority 1998, dated 2000)
Non-standard residues stand in square brackets, D forms with d. Residues, ends and D or L forms follow the SMILES beside them. No end group written: not given here. Phe(4-Cl) = N[C@@H](Cc1ccc(Cl)cc1)C(=O)O; Cha = N[C@@H](CC1CCCCC1)C(=O)O; Nle = CCCC[C@H](N)C(=O)O

Each compound was assayed against T1, APJ (Homo sapiens, UniProt P35414) (assay: Suppression activity on forskolin stimulated cAMP production). Settings: suppression of cAMP production stimulated with 1 µM forskolin; CHO-A10 clone cells; 37°C for 30 minutes; cAMP EIA.
T1 construct: expressed in transfected cells; host or cells: CHO cells (CHO-A10 clone)
T1 sequence (P35414 1-380): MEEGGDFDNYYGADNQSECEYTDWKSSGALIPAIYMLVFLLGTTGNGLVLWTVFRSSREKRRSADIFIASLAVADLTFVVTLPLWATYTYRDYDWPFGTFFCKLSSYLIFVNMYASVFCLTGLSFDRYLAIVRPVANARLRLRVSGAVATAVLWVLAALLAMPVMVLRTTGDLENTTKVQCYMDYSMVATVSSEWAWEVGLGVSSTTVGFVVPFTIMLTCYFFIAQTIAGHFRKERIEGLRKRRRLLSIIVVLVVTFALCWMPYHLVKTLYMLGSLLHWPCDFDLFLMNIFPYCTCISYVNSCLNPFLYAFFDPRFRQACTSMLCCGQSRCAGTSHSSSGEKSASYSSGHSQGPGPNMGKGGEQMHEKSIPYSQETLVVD
Type: cell-based
Method: Subsequently, after washing with 500 µl of the assay buffer once, 500 µl each of the sample dissolved in the assay buffer added with 1 µM of forskolin were put into each well to incubate at 37°C for 30 minutes. Wells incubated with assay buffer added with no forskolin were prepared to know the basic cAMP production of cells (basal level), and similarly, wells incubated with assay buffer added with forskolin were also prepared to know the maximum cAMP production with stimulation of foskolin (maximum level). After completion of incubation, each well was washed with 500 µl of the assay buffer once, added with 500 µl of the lysis buffer IB included in the cAMP EIA system (Amersham Pharmacia Biotech) and extraction of cAMP was carried out. Following the prescription for the kit, a portion of 100 µl each of the extracts was used to assay. The level of suppression activity on cAMP production was calculated by taking the difference between the maximum level and cAMP in the wells that was added with a sample (amount of the suppression of cAMP production), and by taking it as a percentage relative to the increased production (difference between maximum level and basal level) in cAMP associated with forskolin stimulation, and EC50 was determined based on the dose response curve.

Compound	EC50 [nM]
CSCC[C@H](NC(=O)[C@@H]1CCCN1C(=O)CNC(=O)[C@H](CCCCN)NC(=O)[C@H](Cc1c[nH]cn1)NC(=O)[C@H](CO)NC(=O)[C@H](CC(C)C)NC(=O)[C@H](CCCNC(=N)N)NC(=O)[C@@H]1CCCN1C(=O)[C@@H](N)CCCNC(=N)N)C(=O)N[C@@H](Cc1ccc2ccccc2c1)C(=O)O [Example 31]	0.3
LVQPRGSRNGPGPWQGGRRKFRRQRPRLSHKGPMPF [reference compound]	0.52
CC(C)C[C@H](NC(=O)[C@H](CCCNC(=N)N)NC(=O)[C@@H]1CCCN1C(=O)[C@H](CCCNC(=N)N)NC(=O)[C@H](CCC(N)=O)NC(=O)[C@H](CCCNC(=N)N)NC(=O)[C@@H](N)CCCNC(=N)N)C(=O)N[C@@H](CO)C(=O)N[C@@H](Cc1c[nH]cn1)C(=O)N[C@@H](CCCCN)C(=O)NCC(=O)N1CCC[C@H]1C(=O)N[C@@H](CC1CCCCC1)C(=O)O [Example 36] (H-RRQRPRLSHKGP[Cha]-OH)	0.16
CCCC[C@H](NC(=O)[C@H](Cc1c[nH]cn1)NC(=O)[C@H](CO)NC(=O)[C@H](CC(C)C)NC(=O)[C@H](CCCNC(=N)N)NC(=O)[C@@H]1CCCN1C(=O)[C@H](CCCNC(=N)N)NC(=O)[C@H](CCC(N)=O)NC(=O)[C@H](CCCNC(=N)N)NC(=O)[C@@H](N)CCCNC(=N)N)C(=O)NCC(=O)N1CCC[C@H]1C(=O)N[C@@H](CCSC)C(=O)N1CCC[C@H]1C(=O)N[C@@H](Cc1ccc(Cl)cc1)C(=O)O [Example 38] (H-RRQRPRLSH[Nle]GPMP[Phe(4-Cl)]-OH)	0.35
CSCC[C@H](NC(=O)[C@@H]1CCCN1C(=O)CNC(=O)[C@H](CCCCN)NC(=O)[C@H](Cc1c[nH]cn1)NC(=O)[C@H](CO)NC(=O)[C@H](CC(C)C)NC(=O)[C@H](CCCNC(=N)N)NC(=O)[C@@H]1CCCN1C(=O)[C@@H](N)CCCNC(=N)N)C(=O)N[C@@H](CC1CCCCC1)C(=O)O [Example 34]	0.37
CSCC[C@H](NC(=O)[C@@H]1CCCN1C(=O)CNC(=O)[C@H](CCCCN)NC(=O)[C@H](Cc1c[nH]cn1)NC(=O)[C@H](CO)NC(=O)[C@H](CC(C)C)NC(=O)[C@H](CCCNC(=N)N)NC(=O)[C@@H]1CCCN1C(=O)[C@@H](N)CCCNC(=N)N)C(=O)N1CCC[C@H]1C(=O)N[C@@H](Cc1ccc(Cl)cc1)C(=O)O [Example 32]	0.2
CSCC[C@H](NC(=O)[C@@H]1CCCN1C(=O)CNC(=O)[C@H](CCCCN)NC(=O)[C@H](Cc1c[nH]cn1)NC(=O)[C@H](CO)NC(=O)[C@H](CC(C)C)NC(=O)[C@H](CCCNC(=N)N)NC(=O)[C@@H]1CCCN1C(=O)[C@@H](N)CCCNC(=N)N)C(=O)N[C@@H](Cc1ccc(Cl)cc1)C(=O)O [Example 33]	0.1
CSCC[C@H](NC(=O)[C@@H]1CCCN1C(=O)CNC(=O)[C@H](CCCCN)NC(=O)[C@H](Cc1c[nH]cn1)NC(=O)[C@H](CO)NC(=O)[C@H](CC(C)C)NC(=O)[C@H](CCCNC(=N)N)NC(=O)[C@@H]1CCCN1C(=O)[C@H](CCCNC(=N)N)NC(=O)[C@H](CCC(N)=O)NC(=O)[C@H](CCCNC(=N)N)NC(=O)[C@@H](N)CCCNC(=N)N)C(=O)N1CCC[C@H]1C(=O)N[C@@H](Cc1ccc(Cl)cc1)C(=O)O [Example 37]	0.14
CCCC[C@H](NC(=O)[C@@H]1CCCN1C(=O)CNC(=O)[C@H](CCCCN)NC(=O)[C@H](Cc1c[nH]cn1)NC(=O)[C@H](CO)NC(=O)[C@H](CC(C)C)NC(=O)[C@H](CCCNC(=N)N)NC(=O)[C@@H]1CCCN1C(=O)[C@H](CCCNC(=N)N)NC(=O)[C@H](CCC(N)=O)NC(=O)[C@H](CCCNC(=N)N)NC(=O)[C@H](CCCNC(=N)N)NC(=O)[C@H](Cc1ccccc1)NC(=O)[C@H](CCCCN)NC(=O)[C@H](CCCNC(=N)N)NC(=O)[C@H](CCCNC(=N)N)NC(=O)CNC(=O)CNC(=O)[C@H](CCC(N)=O)NC(=O)[C@H](Cc1c[nH]c2ccccc12)NC(=O)[C@@H]1CCCN1C(=O)CNC(=O)[C@@H]1CCCN1C(=O)CNC(=O)[C@H](CC(N)=O)NC(=O)[C@H](CCCNC(=N)N)NC(=O)[C@H](CO)NC(=O)CNC(=O)[C@H](CCCNC(=N)N)NC(=O)[C@@H]1CCCN1C(=O)[C@H](CCC(N)=O)NC(=O)[C@@H](NC(=O)[C@@H](N)CC(C)C)C(C)C)C(=O)N1CCC[C@H]1C(=O)N[C@@H](Cc1ccc(O)cc1)C(=O)O [Example 2] (H-LVQPRGSRNGPGPWQGGRRKFRRQRPRLSHKGP[Nle]PY-OH)	0.41
CSCC[C@H](NC(=O)[C@@H]1CCCN1C(=O)CNC(=O)[C@H](CCCCN)NC(=O)[C@H](Cc1c[nH]cn1)NC(=O)[C@H](CO)NC(=O)[C@H](CC(C)C)NC(=O)[C@H](CCCNC(=N)N)NC(=O)[C@@H]1CCCN1C(=O)[C@@H](N)CCCNC(=N)N)C(=O)N1CCC[C@H]1C(=O)N[C@@H](Cc1ccc2ccccc2c1)C(=O)O [Example 30]	0.28
CCCC[C@H](NC(=O)[C@@H]1CCCN1C(=O)CNC(=O)[C@H](CCCCN)NC(=O)[C@H](Cc1c[nH]cn1)NC(=O)[C@H](CO)NC(=O)[C@H](CC(C)C)NC(=O)[C@H](CCCNC(=N)N)NC(=O)[C@@H]1CCCN1C(=O)[C@H](CCCNC(=N)N)NC(=O)[C@@H]1CCC(=O)N1)C(=O)N1CCC[C@H]1C(=O)N[C@@H](Cc1ccc(O)cc1)C(=O)O [Example 4]	0.19
CC(C)C[C@H](NC(=O)[C@H](CCCNC(=N)N)NC(=O)[C@@H]1CCCN1C(=O)[C@H](CCCNC(=N)N)NC(=O)[C@@H]1CCC(=O)N1)C(=O)N[C@@H](CO)C(=O)N[C@@H](Cc1c[nH]cn1)C(=O)N[C@@H](CCCCN)C(=O)NCC(=O)N1CCC[C@H]1C(=O)N[C@@H](CC1CCCCC1)C(=O)N1CCC[C@H]1C(=O)N[C@@H](Cc1ccccc1)C(=O)O [Example 35]	0.34
